Laboratory results taken from paper PMC4503722, “Novel Phenotypic Outcomes Identified for a Public Collection of Approved Drugs from a Publicly Accessible Panel of Assays” (PLoS ONE, 2015).

Legend:
[1] = tested on: endothelial tube formation in co-cultures of ECFCs and ADSCs treated with VEGF; assay: cells; type: cell-based, human
DLD-1 = assay: cells; type: cell-based; conditions: for Basal_Viability ATP DLD-1 IC50/EC50: assay number 23
SW480 = assay: cells; type: cell-based; conditions: for Basal_Viability ATP SW480 IC50/EC50: assay number 24
HCT116 = assay: cells; type: cell-based; conditions: basal; for Basal_Viability ATP HCT116 IC50/EC50: assay number 25
[2] = tested on: HCT116 cells treated with a GSK3β inhibitor; assay: cells; type: cell-based; conditions: for IC50/EC50, GSK3b inh pretreated_Viability ATP HCT116 (assay number 26): GSK3b inh pretreated; for GSK3b inh pretreated_Viability ATP HCT116 IC50/EC50: assay number 26, GSK3b inhibitor pretreated
Colo320 = assay: cells; type: cell-based; conditions: for Basal_Viability ATP Colo 320 IC50/EC50: assay number 27
HT-29 = assay: cells; type: cell-based; conditions: for Basal_Viability ATP HT-29 IC50/EC50: assay number 28
RKO = assay: cells; type: cell-based; conditions: for Basal_Viability ATP RKO IC50/EC50: assay number 29
SNU-C1 = assay: cells; type: cell-based; conditions: for Basal_Viability ATP SNU-C1 IC50/EC50: assay number 30
[3] = tested on: ECFC/ADSC co-culture cell nuclei number

Structure (SMILES)	IC50/EC50, VEGF_ADSC\ECFC Angio CD31 TubeArea (assay number 2) [1] [µM]	IC50/EC50, Basal_Viability ATP DLD-1 (assay number 23) (DLD-1; basal) [µM]	IC50/EC50, Basal_Viability ATP SW480 (assay number 24) (SW480; basal) [µM]	IC50/EC50, Basal_Viability ATP HCT116 (assay number 25) (HCT116) [µM]	IC50/EC50, GSK3b inh pretreated_Viability ATP HCT116 (assay number 26) [2] [µM]	IC50/EC50, Basal_Viability ATP Colo 320 (assay number 27) (Colo320; basal) [µM]	IC50/EC50, Basal_Viability ATP HT-29 (assay number 28) (HT-29; basal) [µM]	IC50/EC50, Basal_Viability ATP RKO (assay number 29) (RKO; basal) [µM]	IC50/EC50, Basal_Viability ATP SNU-C1 (assay number 30) (SNU-C1; basal) [µM]	IC50/EC50, VEGF_ADSC\ECFC Angio Hoechst NucArea (assay number 3) [3] [µM]	VEGF_ADSC\ECFC Angio CD31 TubeArea IC50/EC50 [1] [µM]	Basal_Viability ATP DLD-1 IC50/EC50 (DLD-1; concentration response) [µM]	Basal_Viability ATP SW480 IC50/EC50 (SW480; concentration response) [µM]	Basal_Viability ATP HCT116 IC50/EC50 (HCT116; concentration response) [µM]	GSK3b inh pretreated_Viability ATP HCT116 IC50/EC50 ([2]; concentration response) [µM]	Basal_Viability ATP Colo 320 IC50/EC50 (Colo320; concentration response) [µM]	Basal_Viability ATP HT-29 IC50/EC50 (HT-29; concentration response) [µM]	Basal_Viability ATP RKO IC50/EC50 (RKO; concentration response) [µM]	Basal_Viability ATP SNU-C1 IC50/EC50 (SNU-C1; concentration response) [µM]	VEGF_ADSC\ECFC Angio Hoechst NucArea IC50/EC50 [3] [µM]	other results
ClC1=C(Cl)C2(Cl)C(CBr)CC1(Cl)C2(Cl)Cl (stereo not drawn) [NCGC00166203-02]	> 10	> 20	> 20	> 20	> 20	> 20	> 20	> 20	> 20	9.9697	–	–	–	–	–	–	–	–	–	–	–
O=C(NC(=O)c1c(F)cccc1F)Nc1ccc(Cl)c(Oc2ncc(C(F)(F)F)cc2Cl)c1 [NCGC00166205-02]	–	–	–	–	–	–	–	–	–	–	> 10	> 20	> 20	> 20	10.6205	> 20	> 20	11.8144	> 20	> 10	–
C[C@H](O)CN(C)C [NCGC00166221-02]	> 10	> 20	> 20	> 20	> 20	> 20	> 20	> 20	> 20	> 10	–	–	–	–	–	–	–	–	–	–	–
C=CCCCCCCCCC(=O)OC [NCGC00166231-02]	–	–	–	–	–	–	–	–	–	–	> 10	> 20	> 20	> 20	> 20	> 20	> 20	> 20	> 20	> 10	–
Clc1ccc(C(Cn2ccnc2)OCc2ccsc2Cl)c(Cl)c1 (stereo not drawn) [NCGC00167430-04]	–	–	–	–	–	–	–	–	–	–	4.9961	–	–	–	–	–	–	–	–	9.466	Basal_Viability ATP DLD-1 IC50/EC50 (DLD-1; basal): > 20 µM; Basal_Viability ATP SW480 IC50/EC50 (SW480; basal): > 20 µM; Basal_Viability ATP HCT116 IC50/EC50 (HCT116): 4.0687 µM; GSK3b inh pretreated_Viability ATP HCT116 IC50/EC50 [2]: 2.843 µM; Basal_Viability ATP Colo 320 IC50/EC50 (Colo320; basal): 5.2288 µM; Basal_Viability ATP HT-29 IC50/EC50 (HT-29; basal): > 20 µM; Basal_Viability ATP RKO IC50/EC50 (RKO; basal): 5.2538 µM; Basal_Viability ATP SNU-C1 IC50/EC50 (SNU-C1; basal): 2.1843 µM
Cc1cccc(C)c1NC(=O)CC12CCCN1CCC2 [NCGC00167454-02]	–	–	–	–	–	–	–	–	–	–	> 10	–	–	–	–	–	–	–	–	> 10	Basal_Viability ATP DLD-1 IC50/EC50 (DLD-1; basal): > 20 µM; Basal_Viability ATP SW480 IC50/EC50 (SW480; basal): > 20 µM; Basal_Viability ATP HCT116 IC50/EC50 (HCT116): > 20 µM; GSK3b inh pretreated_Viability ATP HCT116 IC50/EC50 [2]: > 20 µM; Basal_Viability ATP Colo 320 IC50/EC50 (Colo320; basal): > 20 µM; Basal_Viability ATP HT-29 IC50/EC50 (HT-29; basal): > 20 µM; Basal_Viability ATP RKO IC50/EC50 (RKO; basal): > 20 µM; Basal_Viability ATP SNU-C1 IC50/EC50 (SNU-C1; basal): > 20 µM
